pEC50: −log10 of the molar value.
System: Human immunodeficiency virus 1
Assay: Inhibition of HIV-1 P24 production.
Format: functional, organism-based
Conditions: for EC50: read-out: Log 1/EC50 (converted)

Compound | pEC50 (Human immunodeficiency virus 1) | EC50 [µM] | pEC50
C=Cc1c(C)c2cc3[nH]c(cc4nc(cc5nc(cc1[nH]2)C(C)=C5CCC(=O)OC)C(CCC(=O)OC)=C4C)c(C)c3C=C | 4.17 | 67.6 | –
CC1=C(C(O)CO)c2cc3nc(cc4[nH]c(cc5[nH]c(cc1n2)c(C)c5CCC(=O)O)c(CCC(=O)O)c4C)C(C(O)CO)=C3C (stereo unspecified) | 4.26 | 55 | –
O=C(O)c1ccc(/C2=C3\C=CC(=N3)/C(c3ccc(Cl)cc3)=C3/C=CC(=N3)/C(c3ccc(C(=O)O)cc3)=c3/cc/c([nH]3)=C(\c3ccc(C(=O)O)cc3)C3C=CC2N3)cc1 (stereo unspecified) | 6.12 | 1.32 | –
Cc1ccc(/C2=C3\C=CC(=N3)/C(c3ccc(C(=O)O)cc3)=c3/cc/c([nH]3)=C(\c3ccc(C)cc3)C3C=CC(N3)/C(c3ccc(C)cc3)=C3/C=CC2=N3)cc1 (stereo unspecified) | 4.83 | 14.8 | –
NC(=O)c1ccc(/C2=C3\C=CC(=N3)/C(c3ccc(C(N)=O)cc3)=c3/cc/c([nH]3)=C(\c3ccc(C(N)=O)cc3)C3C=CC(N3)/C(c3ccc(C(N)=O)cc3)=C3/C=CC2=N3)cc1 (stereo unspecified) | 5.97 | 1.07 | –
C=CC1=C(C)c2cc3nc(cc4[nH]c(cc5[nH]c(cc1n2)c(C)c5CO)c(C)c4CCC(=O)O)C(CCC(=O)O)=C3C | 5.25 | 5.62 | –
C=Cc1c(C)c2cc3[nH]c(cc4nc(cc5nc(cc1[nH]2)C(C)=C5CCC(=O)O)C(CCC(=O)O)=C4C)c(C)c3C(C)O (stereo unspecified) | 5.21 | 6.17 | –
C1=C/C2=C(\c3ccccc3)C3C=CC(N3)/C(c3ccccc3)=c3/cc/c([nH]3)=C(\c3ccccc3)C3=N/C(=C(/c4ccccc4)C1=N2)C=C3 (stereo unspecified) | 4.26 | 55 | –
CC1=C(CCC(=O)O)c2cc3[nH]c(cc4[nH]c(cc5nc(cc1n2)C(CCC(=O)O)=C5CC(=O)O)c(CCC(=O)O)c4C)c(CCC(=O)O)c3CC(=O)O | 4.68 | 20.9 | –
O=C(O)c1ccc(/C2=C3\C=CC(=N3)/C(c3ccccc3)=c3/cc/c([nH]3)=C(\c3ccc(C(=O)O)cc3)C3C=CC(N3)/C(c3ccc(C(=O)O)cc3)=C3/C=CC2=N3)cc1 (stereo unspecified) | 6.21 | – | –
CN1C2C=CC1/C(c1ccc(C(=O)O)cc1)=c1/cc/c([nH]1)=C(\c1ccc(C(=O)O)cc1)C1=N/C(=C(/c3ccc(C(=O)O)cc3)C3=N/C(=C\2c2ccc(C(=O)O)cc2)C=C3)C=C1 (stereo unspecified) | 6.11 | 1.29 | –
C=CC1=C(C)c2cc3nc(cc4[nH]c(cc5c(C=C)c(C)c(cc1n2)n5C)c(C)c4CCC(=O)O)C(CCC(=O)O)=C3C | 5.99 | 1.02 | –
O=C(O)c1ccc(/C2=C3\C=CC(=N3)/C(c3ccc(C(=O)O)cc3)=c3/cc/c([nH]3)=C(\c3ccc(C(=O)O)cc3)C3C=CC(N3)/C(c3ccc(C(=O)O)cc3)=C3/C=CC2=N3)cc1 (stereo unspecified) | 6.20 | – | –
O=C(O)CCC1=C(CC(=O)O)c2cc3nc(cc4[nH]c(cc5[nH]c(cc1n2)c(CCC(=O)O)c5CC(=O)O)c(CC(=O)O)c4CCC(=O)O)C(CC(=O)O)=C3CCC(=O)O | 5.52 | 3.02 | –
O=C(O)CCC1=C(CC(=O)O)c2cc3nc(cc4[nH]c(cc5[nH]c(cc1n2)c(CC(=O)O)c5CCC(=O)O)c(CC(=O)O)c4CCC(=O)O)C(CC(=O)O)=C3CCC(=O)O | 5.04 | 9.12 | –
CC1=C(CCC(=O)O)c2cc3nc(cc4[nH]c(cc5[nH]c(cc1n2)c(CCC(=O)O)c5CC(=O)O)c(CCC(=O)O)c4C)C(CCC(=O)O)=C3C | 4.36 | 43.7 | –
CC1=C(CCC(=O)O)c2cc3[nH]c(cc4[nH]c(cc5nc(cc1n2)C(CCC(=O)O)=C5CC(=O)O)c(CCC(=O)O)c4CC(=O)O)c(CCC(=O)O)c3CC(=O)O | 4.97 | 10.7 | –
O=C(O)C1=CC(=C(c2ccc(O)c(C(=O)O)c2)c2ccc(O)c(C(=O)O)c2)C=CC1=O [AURINTRICARBOXYLIC ACID] | 4.55 | – | –
C=CC1=C(C)c2cc3[nH]c(cc4nc(cc5[nH]c(cc1n2)c(C)c5CCC(=O)O)C(CCC(=O)O)=C4C)c(C)c3C=C [PROTOPORPHYRIN] | 5.66 | 2.19 | –
HEMIN | – | – | 4.45
